Ten compounds from PMC9621233, “4-Cyanamidobenzenesulfonamide derivatives: a novel class of human and bacterial carbonic anhydrase inhibitors” (Journal of Enzyme Inhibition and Medicinal Chemistry, 2022) can be followed below.

Molecules are shown by their SMILES.

What all share (test): stopped-flow CO2 hydration assay, phenol red
Assay [1] addresses T1, StCA1.
T1 construct: recombinant beta-CA, obtained in-house
Format: biochemical, Salmonella enterica subsp. enterica serovar Typhimurium. To be noted: […] TRIS pH […] Na2SO4, […] h preincubation, room temperature; read-out: KI (nM)^a / StCA1 (β-CA).

Assay [2] addresses T2, hCA I (Homo sapiens, UniProt P00915).
T2 construct: gene CA1; recombinant, obtained in-house; cytosolic alpha-CA
Format: biochemical. As to conditions: read-out: KI (nM)^a / hCA I (α-CA). The source says:
stopped-flow CO2 hydration assay, phenol red on hCA I

For assay [3], the target named is T3, hCA XIII (Homo sapiens, UniProt Q8N1Q1).
T3 construct: gene CA13; recombinant, obtained in-house; cytosolic alpha-CA
T3 sequence (Q8N1Q1 whole entry): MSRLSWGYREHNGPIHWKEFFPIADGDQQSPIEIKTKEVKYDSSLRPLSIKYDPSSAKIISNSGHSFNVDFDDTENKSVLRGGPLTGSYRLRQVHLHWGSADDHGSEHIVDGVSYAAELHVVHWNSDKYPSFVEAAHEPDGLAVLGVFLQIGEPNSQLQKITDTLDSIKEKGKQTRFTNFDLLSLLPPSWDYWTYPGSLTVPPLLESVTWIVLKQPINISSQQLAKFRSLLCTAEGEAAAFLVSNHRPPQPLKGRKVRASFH
In kind it is biochemical. As to conditions: read-out: KI (nM)^a / hCA XIII (α-CA). The source says:
stopped-flow CO2 hydration assay, phenol red on hCA XIII

Assay [4] has as its target T4, hCA II (Homo sapiens, UniProt P00918).
T4 construct: gene CA2; recombinant, obtained in-house; cytosolic alpha-CA
Format: biochemical. As to conditions: read-out: KI (nM)^a / hCA II (α-CA). The source says: stopped-flow CO2 hydration assay, phenol red on hCA II

For assay [5], the target named is T5, hCA VII (Homo sapiens, UniProt P43166).
T5 construct: gene CA7; recombinant, obtained in-house; cytosolic alpha-CA
T5 sequence (P43166 whole entry): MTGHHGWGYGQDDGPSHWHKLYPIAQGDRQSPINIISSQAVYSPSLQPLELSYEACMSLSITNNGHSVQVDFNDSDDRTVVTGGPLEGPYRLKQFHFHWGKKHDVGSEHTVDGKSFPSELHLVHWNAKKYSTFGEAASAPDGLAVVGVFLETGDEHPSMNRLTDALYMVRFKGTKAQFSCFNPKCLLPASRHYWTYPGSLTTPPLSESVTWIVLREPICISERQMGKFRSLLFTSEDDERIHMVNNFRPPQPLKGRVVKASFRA
In kind it is biochemical. To be noted: read-out: KI (nM)^a / hCA VII (α-CA). The source says:
stopped-flow CO2 hydration assay, phenol red on hCA VII

The target of assay [6] is T6, StCA2.
T6 construct: recombinant beta-CA, obtained in-house
Format: biochemical, Salmonella enterica subsp. enterica serovar Typhimurium. As to conditions: […] TRIS pH […] Na2SO4, […] h preincubation, room temperature; read-out: KI (nM)^a / StCA2 (β-CA).

Assay [7] has as its target T7, MscCA.
T7 construct: recombinant beta-CA, obtained in-house; earlier published as SauCA
In kind it is biochemical, Mammaliicoccus sciuri. As to conditions: […] TRIS pH […] Na2SO4, […] h preincubation, room temperature; read-out: KI (nM)^a / MscCA (β-CA).

T2 sequence (P00915 2-261): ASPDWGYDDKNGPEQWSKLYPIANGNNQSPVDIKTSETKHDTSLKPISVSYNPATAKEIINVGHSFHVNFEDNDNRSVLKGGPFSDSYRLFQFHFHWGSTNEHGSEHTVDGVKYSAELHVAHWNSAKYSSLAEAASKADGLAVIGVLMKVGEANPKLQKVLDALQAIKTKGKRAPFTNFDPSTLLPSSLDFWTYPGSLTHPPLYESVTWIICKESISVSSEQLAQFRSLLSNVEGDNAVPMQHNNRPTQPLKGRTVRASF

As for `N#CN(Cc1ccc(Br)cc1)c1ccc(S(N)(=O)=O)cc1` [compound 17, 4-(N-(4-Bromobenzyl)cyanamido)benzenesulfonamide], the Ki in assay [1] was determined as 73.1 nM; in assay [2], 389 nM; in assay [3], 53.1 nM; in assay [4] it was 93.3 nM; in assay [5], 2.4 nM; in assay [6], 750 nM. Moreover, in assay [7], the Ki was 9590 nM.

Regarding `CCCCCCN(C#N)c1ccc(S(N)(=O)=O)cc1` [compound 11, 4-(N-Hexylcyanamido)benzenesulfonamide], the Ki was found to be 54.6 nM in assay [1]; 9.3 nM in assay [2]; 83 nM in assay [3]; 5.3 nM in assay [4]; 1.5 nM in assay [5]; 718 nM in assay [6]. In addition, the Ki in assay [7] came to 6880 nM.

As for `CCCCCCCN(C#N)c1ccc(S(N)(=O)=O)cc1` [compound 12, 4-(N-Heptylcyanamido)benzenesulfonamide], the Ki in assay [1] is 58.8 nM; in assay [2] it was 38.2 nM; in assay [3], 31.5 nM; in assay [4], 7.1 nM; in assay [5], 1.7 nM; in assay [6] it was 676 nM. Besides, the Ki in assay [7] worked out at 7190 nM.

In the case of `C=CCN(C#N)c1ccc(S(N)(=O)=O)cc1` [compound 15, 4-(N-Allylcyanamido)benzenesulfonamide], the Ki turned out to be 51.2 nM in assay [1]; 74.7 nM in assay [2]; 97.7 nM in assay [3]; 54.1 nM in assay [4]; 2.3 nM in assay [5]; 645 nM in assay [6]. Further, the Ki in assay [7] worked out at 5100 nM.

In the case of `CN(C#N)c1ccc(S(N)(=O)=O)cc1` [compound 8, 4-(N-Methylcyanamido)benzenesulfonamide], the Ki came out at 52.7 nM in assay [1]; 557 nM in assay [2]; 117 nM in assay [3]; 29.2 nM in assay [4]; 13.8 nM in assay [5]; 200 nM in assay [6]. Further, in assay [7], the Ki worked out at 1580 nM.

As for `CCCCN(C#N)c1ccc(S(N)(=O)=O)cc1` [compound 10, 4-(N-Butylcyanamido)benzenesulfonamide], the Ki is 62.7 nM in assay [1]; 16.4 nM in assay [2]; 70.7 nM in assay [3]; 32 nM in assay [4]; 1.3 nM in assay [5]; 426 nM in assay [6]. The Ki in assay [7] is 4480 nM.

On to `CCN(C#N)c1ccc(S(N)(=O)=O)cc1` [compound 9, 4-(N-Ethylcyanamido)benzenesulfonamide], for which the Ki was 61.5 nM in assay [1]; 88.6 nM in assay [2]; 476 nM in assay [3]; 45.3 nM in assay [4]; 17.9 nM in assay [5]; 367 nM in assay [6]. Moreover, the Ki in assay [7] turned out to be 3150 nM.

Consider `CCCCCCCCCCCCCCCCCCN(C#N)c1ccc(S(N)(=O)=O)cc1` [compound 13, 4-(N-Octadecylcyanamido)benzenesulfonamide], for which the Ki in assay [1] is 66.1 nM; in assay [2] it was 17.3 nM; in assay [3] it was 155 nM; in assay [4] it was 9.5 nM; in assay [5], 2.2 nM; in assay [6], 791 nM. Besides, the Ki in assay [7] is 9170 nM.

For `N#CN(Cc1ccccc1)c1ccc(S(N)(=O)=O)cc1` [compound 16, 4-(N-Benzylcyanamido)benzenesulfonamide], the Ki is 50.7 nM in assay [1]; 67.3 nM in assay [2]; 67.8 nM in assay [3]; 61.4 nM in assay [4]; 2 nM in assay [5]; 692 nM in assay [6]. For the same compound, the Ki in assay [7] was 9360 nM.

Turning to `N#CN(c1ccc(S(N)(=O)=O)cc1)C1CCCCC1` [compound 14, 4-(N-Cyclohexylcyanamido)benzenesulfonamide], the Ki was determined as 69.5 nM in assay [1]; 50.6 nM in assay [2]; 83.8 nM in assay [3]; 82.3 nM in assay [4]; 1.9 nM in assay [5]; 579 nM in assay [6]. The Ki in assay [7] was determined as 5360 nM.
